Source: patent publication US8546401B2, “5,6-disubstituted oxindole-derivatives and use thereof for treating vasopressin-dependent diseases” (AbbVie Deutschland GmbH & Co. KG, priority 2007, dated 2013)

Columns and labels:
human oxytocin receptors = target: T1, human oxytocin receptors (Homo sapiens, UniProt P30559); assay: Oxytocin receptor binding assay; conditions: selectivity quotient
T1 construct: expressed in transfected cells; host or cells: HEK-293, transient expression; lysed and homogenized cells
T1 sequence (P30559 1-389): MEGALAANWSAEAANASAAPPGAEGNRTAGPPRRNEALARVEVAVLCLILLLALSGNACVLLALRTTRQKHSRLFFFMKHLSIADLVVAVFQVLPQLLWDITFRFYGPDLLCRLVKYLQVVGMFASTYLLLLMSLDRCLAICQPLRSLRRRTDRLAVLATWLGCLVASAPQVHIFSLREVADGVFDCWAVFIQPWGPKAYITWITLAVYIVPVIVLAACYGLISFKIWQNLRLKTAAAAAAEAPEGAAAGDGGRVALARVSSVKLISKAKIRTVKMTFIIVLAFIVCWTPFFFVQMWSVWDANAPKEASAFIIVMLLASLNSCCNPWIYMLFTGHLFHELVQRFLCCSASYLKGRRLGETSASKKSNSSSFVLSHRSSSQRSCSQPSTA
Description: 4. Oxytocin Receptor Binding Assay
The substances were dissolved in a concentration of 10^−2 M in DMSO and diluted with incubation buffer (50 mM Tris, 10 mM MgCl2, 0.1% BSA, pH 7.4).
Confluent HEK-293 cells with transiently expressing recombinant human oxytocin receptors were centrifuged at 750×g at room temperature for 5 minutes. The residue was taken up in ice-cold lysis buffer (50 mM Tris-HCl, 10% glycerol, pH 7.4 and Roche complete protease inhibitor) and subjected to an osmotic shock at 4° C. for 20 minutes. The lyzed cells were then centrifuged at 750×g at 4° C. for 20 minutes, the residue was taken up in incubation buffer, and aliquots of 10^7 cells/ml were prepared. The aliquots were frozen at −80° C. until used.
On the day of the experiment, the cells were thawed, diluted with incubation buffer and homogenized using a Multipette Combitip (Eppendorf, Hamburg). The reaction mixture of 0.250 ml was composed of 2 to 5×10^4 recombinant cells, 3-4 nM ^3H-oxytocin (PerkinElmer, NET 858) in the presence of test substance (inhibition plot) or only incubation buffer (total binding). The nonspecific binding was determined with 10^−6 M oxytocin (Bachem AG, H2510). Triplicate determinations were set up. Bound and free radioligand were separated by filtration under vacuum with Whatman GF/B glass fiber filters with the aid of a Skatron cell harvester 7000. The bound radioactivity was determined by liquid scintillation measurement in a Tricarb Beta counter, model 2000 or 2200CA (Packard).
The binding parameters were calculated by nonlinear regression analysis (SAS) in analogy to the LIGAND program of Munson and Rodbard (Analytical Biochem 1980; 107: 220-239). The Kd of ^3H-oxytocin for the recombinant hOT receptors is 7.6 nM and was used to determine the Ki.

[1] = target: T2, human vasopressin V1a receptor (Homo sapiens, UniProt P37288); assay: Vasopressin V1a receptor binding assay; conditions: selectivity quotient, human receptors
T2 construct: expressed in transfected cells; host or cells: CHO-K1 (cell line hV1a_5_CHO), membrane preparation
Description: 2. Vasopressin V1a Receptor Binding Assay:
The test substances were dissolved in a concentration of 10^−2 M in DMSO. Further dilution of these DMSO solutions took place in incubation buffer (50 mM Tris, 10 mM MgCl2, 0.1% BSA, pH 7.4).
(§1) CHO-K1 cells with stably expressed human vasopressin V1a receptor (clone 5) were harvested and homogenized in 50 mM Tris-HCl and in the presence of protease inhibitors (Roche complete Mini #1836170) using a Polytron homogenizer at intermediate setting for 2×10 seconds, and subsequently centrifuged at 40 000×g for 1 h. The membrane pellet was again homogenized and centrifuged as described and subsequently taken up in 50 mM Tris-HCl, pH 7.4, homogenized and stored in aliquots frozen in liquid nitrogen at −190° C.
(§2) The binding assay was carried out by the method based on that of Tahara et al. (Tahara A et al., Brit. J. Pharmacol. 125, 1463-1470 (1998)).
(§3) The incubation buffer was: 50 mM Tris, 10 mM MgCl2, 0.1% BSA, pH 7.4.
In the assay mixture (250 μl), membranes (20 μg/ml protein in incubation buffer) from CHO-K1 cells with stably expressed human V1a receptors (cell line hV1a—5_CHO) were incubated with 0.04 nM ^125I-AVP (8-Arg-vasopressin, NEX 128) in incubation buffer (50 mM Tris, 10 mM MgCl2, 0.1% BSA, pH 7.4) (total binding) or additionally with increasing concentrations of test substance (displacement experiment). The nonspecific binding was determined with 1 μM AVP (Bachem #H1780). Triplicate determinations were carried out.
After incubation (60 minutes at room temperature), the free radioligand was filtered off by vacuum filtration (Skatron cell harvester 7000) through Wathman GF/B glass fiber filter mats, and the filters were transferred into scintillation vials.
The liquid scintillation measurement took place in a model 2000 or 2200CA Tricarb instrument (Packard). Conversion of the measured cpm into dpm was carried out with the aid of a standard quench series.
(§4) The binding parameters were calculated by nonlinear regression in SAS. The algorithms of the program operate in analogy to the LIGAND analysis program (Munson P J and Rodbard D, Analytical Biochem. 107, 220-239 (1980)). The Kd of ^125I-AVP for the recombinant hV1a receptors was determined in saturation experiments. A Kd of 1.33 nM was used to determine the Ki.

[2] = target: T3, human vasopressin V1b receptor (Homo sapiens, UniProt P47901); assay: Vasopressin V1b receptor binding assay; conditions: CHO-K1 membranes, 3H-AVP displacement
T3 construct: expressed in transfected cells; host or cells: CHO-K1 (cell line hV1b_3H2_CHO), membrane preparation
T3 sequence (P47901 1-424): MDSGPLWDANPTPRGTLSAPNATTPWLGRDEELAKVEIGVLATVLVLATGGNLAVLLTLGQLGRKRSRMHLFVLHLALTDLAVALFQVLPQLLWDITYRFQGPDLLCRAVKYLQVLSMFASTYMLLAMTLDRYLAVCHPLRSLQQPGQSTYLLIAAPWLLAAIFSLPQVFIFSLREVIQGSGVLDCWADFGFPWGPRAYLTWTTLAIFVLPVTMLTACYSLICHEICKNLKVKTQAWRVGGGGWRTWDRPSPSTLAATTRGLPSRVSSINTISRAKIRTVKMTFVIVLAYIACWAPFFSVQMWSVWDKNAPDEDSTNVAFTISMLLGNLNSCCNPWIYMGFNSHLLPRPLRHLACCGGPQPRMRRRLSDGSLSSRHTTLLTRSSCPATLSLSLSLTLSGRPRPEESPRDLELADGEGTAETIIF
Description: 1. Vasopressin V1b Receptor Binding Assay:
The test substances were dissolved in a concentration of 10^−2 M in DMSO and further diluted to 5×10^−4 M to 5×10^−3 M. These serial DMSO predilutions were diluted 1:10 with assay buffer. The substance concentration was further diluted 1:5 in the assay mixture (2% DMSO in the mixture).
as §1, with “V1b” for “V1a”, “3H2)” for “5)”
as §2, §3
In the assay mixture (250 μl), membranes (50 μg/ml protein in incubation buffer) from CHO-K1 cells with stably expressed human V1b receptors (cell line hV1b—3H2_CHO) were incubated with 1.5 nM ^3H-AVP (8-Arg-vasopressin, PerkinElmer #18479) in incubation buffer (50 mM Tris, 10 mM MgCl2, 0.1% BSA, pH 7.4) (total binding) or additionally with increasing concentrations of test substance (displacement experiment). The nonspecific binding was determined with […] (Bachem #H1780). All determinations were carried out as triplicate determinations. After incubation (60 minutes at room temperature), the free radioligand was filtered off by vacuum filtration (Skatron cell harvester 7000) through Wathman GF/B glass fiber filter mats, and the filters were transferred into scintillation vials. The liquid scintillation measurement took place in a model 2000 or 2200CA Tricarb instrument (Packard). Conversion of the measured cpm into dpm was carried out with the aid of a standard quench series.
as §4, with “^3H-AVP” for “^125I-AVP”, “human V1b” for “hV1a”, “is 0.4” for “was determined in saturation experiments. A Kd of 1.33”, “nM and” for “nM”

T2 sequence (P37288 whole entry): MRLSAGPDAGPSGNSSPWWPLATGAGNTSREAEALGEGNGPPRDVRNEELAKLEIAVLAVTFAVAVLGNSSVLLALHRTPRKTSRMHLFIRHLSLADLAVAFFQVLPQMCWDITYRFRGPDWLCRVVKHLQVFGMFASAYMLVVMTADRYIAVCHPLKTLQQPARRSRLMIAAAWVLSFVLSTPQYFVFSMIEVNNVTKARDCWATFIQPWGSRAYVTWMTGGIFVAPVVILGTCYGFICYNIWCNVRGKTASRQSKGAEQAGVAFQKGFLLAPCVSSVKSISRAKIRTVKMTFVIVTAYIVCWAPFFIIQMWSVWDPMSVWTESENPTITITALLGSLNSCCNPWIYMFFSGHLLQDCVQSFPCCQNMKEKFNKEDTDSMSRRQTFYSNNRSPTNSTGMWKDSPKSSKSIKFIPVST

| Ki(h − OT)/Ki(h − V1b)* (human oxytocin receptors) | Ki(h − V1a)/Ki(h − V1b)* [1] | Ki [2] | Structure (SMILES) |
| --- | --- | --- | --- |
| + (10-<25) | ++ (25-75) | 1 to 10 nM | CCOc1ccccc1C1(NC(=O)N2CCN(C3CCN(C)CC3)CC2)C(=O)N(S(=O)(=O)c2ccc(OC)cc2)c2cc(F)c(C#N)cc21 (stereo not drawn) [Example 10, 4-(1-Methylpiperidin-4-yl)piperazine-1-[5-cyano-3-(2-ethoxyphenyl)-6-fluoro-1-(4-methoxyphenylsulfonyl)-2-oxo-2,3-dihydro-1H-indol-3-yl]carboxamide] |
| +++ (>75) | +++ (>75) | < 1 nM | CCOc1ccccc1C1(NC(=O)N2CCN(C3CCN(CC)CC3)CC2)C(=O)N(S(=O)(=O)c2ccc(OC)cc2OC)c2cc(F)c(C#N)cc21 (stereo not drawn) [Example 11, 4-(1-Ethylpiperidin-4-yl)piperazine-1-[5-cyano-1-(2,4-dimethoxyphenylsulfonyl)-3-(2-ethoxyphenyl)-6-fluoro-2-oxo-2,3-dihydro-1H-indol-3-yl]carboxamide] |
| +++ (>75) | +++ (>75) | 1 to 10 nM | CCOc1ccccc1C1(NC(=O)N2CCN(C3CCN(CC)CC3)CC2)C(=O)N(S(=O)(=O)c2ccc(OC)cc2)c2cc(F)c(C#N)cc21 (stereo not drawn) [Example 12, 4-(1-Ethylpiperidin-4-yl)piperazine-1-[5-cyano-3-(2-ethoxyphenyl)-6-fluoro-1-(4-methoxyphenylsulfonyl)-2-oxo-2,3-dihydro-1H-indol-3-yl]carboxamide] |
| +++ (>75) | ++ (25-75) | 1 to 10 nM | CCOc1ccccc1C1(NC(=O)N2CCN(C3CCN(CC)CC3)CC2)C(=O)N(S(=O)(=O)c2ccccc2)c2cc(F)c(C#N)cc21 (stereo not drawn) [Example 13, 4-(1-Ethylpiperidin-4-yl)piperazine-1-[1-phenylsulfonyl-5-cyano-3-(2-ethoxyphenyl)-6-fluoro-2-oxo-2,3-dihydro-1H-indol-3-yl]carboxamide] |
| +++ (>75) | + (10-<25) | 1 to 10 nM | CCOc1ccccc1C1(NC(=O)N2CCC(N3CCN(C)CC3)CC2)C(=O)N(S(=O)(=O)c2ccc(OC)cc2OC)c2cc(F)c(C#N)cc21 (stereo not drawn) [Example 14, 4-(4-Methylpiperazin-1-yl)piperidine-1-[5-cyano-1-(2,4-dimethoxyphenylsulfonyl)-3-(2-ethoxyphenyl)-6-fluoro-2-oxo-2,3-dihydro-1H-indol-3-yl]carboxamide] |
| +++ (>75) | + (10-<25) | 1 to 10 nM | CCOc1ccccc1C1(NC(=O)N2CCC(N3CCN(CC)CC3)CC2)C(=O)N(S(=O)(=O)c2ccc(OC)cc2)c2cc(F)c(C#N)cc21 (stereo not drawn) [Example 17, 4-(4-Ethylpiperazin-1-yl)piperidine-1-[5-cyano-3-(2-ethoxyphenyl)-6-fluoro-1-(4-methoxyphenylsulfonyl)-2-oxo-2,3-dihydro-1H-indol-3-yl]carboxamide] |

| Structure (SMILES) | Ki(h − OT)/Ki(h − V1b)* (human oxytocin receptors) | Ki(h − V1a)/Ki(h − V1b)* [1] | Ki [2] |
| --- | --- | --- | --- |
| CCOc1ccccc1C1(NC(=O)N2CCC(N3CCN(C)CC3)CC2)C(=O)N(S(=O)(=O)c2ccc(OC)cc2)c2cc(F)c(C#N)cc21 (stereo not drawn) [Example 15, 4-(4-Methylpiperazin-1-yl)piperidine-1-[5-cyano-3-(2-ethoxyphenyl)-6-fluoro-1-(4-methoxyphenylsulfonyl)-2-oxo-2,3-dihydro-1H-indol-3-yl]carboxamide] | +++ (>75) | + (10-<25) | 1 to 10 nM |
| CCOc1ccccc1C1(NC(=O)N2CCC(N3CCN(CC)CC3)CC2)C(=O)N(S(=O)(=O)c2ccc(OC)cc2OC)c2cc(F)c(C#N)cc21 (stereo not drawn) [Example 16, 4-(4-Ethylpiperazin-1-yl)piperidine-1-[5-cyano-1-(2,4-dimethoxyphenylsulfonyl)-3-(2-ethoxyphenyl)-6-fluoro-2-oxo-2,3-dihydro-1H-indol-3-yl]carboxamide] | +++ (>75) | + (10-<25) | < 1 nM |
| CCOc1ccccc1C1(NC(=O)N2CCC(N3CCN(CC)CC3)CC2)C(=O)N(S(=O)(=O)c2ccccc2)c2cc(F)c(C#N)cc21 (stereo not drawn) [Example 18, 4-(4-Ethylpiperazin-1-yl)piperidine-1-[1-phenylsulfonyl-5-cyano-3-(2-ethoxyphenyl)-6-fluoro-2-oxo-2,3-dihydro-1H-indol-3-yl]carboxamide] | +++ (>75) | + (10-<25) | 1 to 10 nM |
